Where a name gives a salt, the structure may show the parent alone. Where a SMILES comes first, the peptide text is derived from it.
Molecular target: T1, renin (Homo sapiens, UniProt P00797)
T1 construct: Blood plasma was obtained from healthy laboratory personnel, pooled and stored frozen until required; from tissue; host or cells: pooled human blood plasma (supernatant after centrifugation)
T1 sequence (P00797 67-406): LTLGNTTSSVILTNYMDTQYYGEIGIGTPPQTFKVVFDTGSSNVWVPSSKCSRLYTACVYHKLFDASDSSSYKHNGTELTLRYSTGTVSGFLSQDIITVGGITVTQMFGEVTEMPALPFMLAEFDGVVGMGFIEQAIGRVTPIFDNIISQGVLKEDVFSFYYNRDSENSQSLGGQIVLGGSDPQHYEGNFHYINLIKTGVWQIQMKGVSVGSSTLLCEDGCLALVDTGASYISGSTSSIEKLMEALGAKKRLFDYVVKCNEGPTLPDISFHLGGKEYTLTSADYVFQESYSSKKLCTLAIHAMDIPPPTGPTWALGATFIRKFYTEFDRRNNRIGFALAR
Assay: Inhibition of the angiotensinogen-cleaving activity of renin in vitro (plasma, angiotensin I radioimmunoassay)
Format: biochemical
Conditions: pooled blood plasma from healthy laboratory personnel, pH 7.4, incubated three hours at 37° C., angiotensin I by radioimmunoassay; read-out: IC50 (inhibitor concentration required to produce a fifty percent inhibition of the angiotensinogen-cleaving activity of renin)
Method: Blood plasma was obtained from healthy laboratory personnel, pooled and stored frozen until required. Before use, a quantity of this plasma was defrosted and centrifuged, and the supernatant mixed with protease inhibitors and buffered to pH 7.4. Renin inhibitors were added at different levels to different aliquots of the plasma supernatant, and the resulting mixtures (310 lambda) incubated for three hours at 37° C. along with renin inhibitor-free control mixtures. After incubation, the mixtures were quenched in ice water and each assayed for angiotensin I using angiotensin I antibody. The production of angiotensin I in the presence of a renin inhibitor was compared to that produced in the absence of the inhibitor, and a percentage inhibition was calculated. Using data obtained from duplicate incubations at each of several different inhibitor concentrations, the inhibitor concentration in the incubation mixture required to produce a fifty percent inhibition of the angiotensinogen-cleaving activity of renin, i.e. the IC50 of the inhibitor, was calculated for various different inhibitors.
The angiotensin I in the quenched incubation mixtures was assayed by means of a radioimmunoassay, using components of a renin radioimmunoassay kit supplied by Becton Dickinson and Co. (Orangeburg, N.Y.). This radioimmunoassay was based upon the one developed by Haber et al., J. Clin. Endocrinol., 29, pp. 1349-1355 (1969).

CC(C)(C)OC(=O)N[C@@H](Cc1ccccc1)C(=O)N[C@@H](Cc1c[nH]cn1)C(=O)N[C@@H](CC1CCCCC1)[C@@H](O)CC(=O)N[C@@H](CCCCN)C(=O)N[C@@H](Cc1ccccc1)C(=O)O [Example 9, [N-(t-butyloxycarbonyl)-Phe]-His-Cyclostatine-Lys-Phe] (HELM PEPTIDE1{[CC(C)(C)OC(=O)[*:2]].F.H.[O=C(C[C@H](O)[C@H](CC1CCCCC1)N[*:1])[*:2]].K.F}$$$$V2.0)
IC50: < 4 µM

CC(C)(C)OC(=O)N1CCC[C@H]1C(=O)N[C@@H](Cc1ccccc1)C(=O)N[C@@H](Cc1c[nH]cn1)C(=O)N[C@@H](CC1CCCCC1)[C@@H](O)CC(=O)N[C@@H](CCCCN)C(=O)N[C@@H](Cc1ccccc1)C(=O)O [Example 10, [N-(t-butyloxycarbonyl)-Pro]-Phe-His-CyclostatineLys-Phe] (HELM PEPTIDE1{[CC(C)(C)OC(=O)[*:2]].P.F.H.[O=C(C[C@H](O)[C@H](CC1CCCCC1)N[*:1])[*:2]].K.F}$$$$V2.0)
IC50: < 4 µM

CC[C@H](C)[C@@H](CN[C@@H](Cc1ccccc1)C(=O)O)NC(=O)C[C@H](O)[C@H](CC1CCCCC1)NC(=O)[C@H](Cc1c[nH]cn1)NC(=O)[C@H](Cc1ccccc1)NC(=O)OC(C)(C)C [Example 11, [N-(t-butyloxycarbonyl)-Phe]-His-Cyclostatine-[Amino(2-secbutyl-ethylene)]-Phe Acetic Acid Salt]
IC50: < 4 µM

[N-(t-butyloxycarbonyl)-Phe]-His-Aminostatine-Ile-Phe Diacetate [Example 5]
IC50: < 4 µM
